Consider 16 substances from patent US7148204B2, “Antisense modulation of bcl-x expression” (Isis Pharmaceuticala, Inc., priority 1998, dated 2006).

In the oligonucleotide strings, read from the 5' end, every base follows the letter of its sugar. An asterisk marks phosphorothioate; unmarked linkages are phosphodiester. Other units and linkages are bracketed, terminal groups are in braces. A string of capitals states the bases alone. e = 2'-O-(2-methoxyethyl) (MOE); [5mC] = 5-methylcytosine; d = 2'-deoxy (DNA)

The subject of this series is human bcl-x mRNA. Description: Northern blot analysis of bcl-x mRNA levels in A549 cells. Type of series: cell-based. The procedure:
Eighteen hours after antisense treatment, cell monolayers were washed twice with cold PBS and lysed in 1 mL RNAZOL™ (TEL-TEST “B” Inc., Friendswood, Tex.). Total RNA was prepared following manufacturer's recommended protocols. Twenty micrograms of total RNA was fractionated by electrophoresis through 1.2% agarose gels containing 1.1% formaldehyde using a MOPS buffer system (AMRESCO, Inc. Solon, Ohio). RNA was transferred from the gel to HYBOND™-N+ nylon membranes (Amersham Pharmacia Biotech, Piscataway, N.J.) by overnight capillary transfer using a Northern/Southern Transfer buffer system (TEL-TEST “B” Inc., Friendswood, Tex.). RNA transfer was confirmed by UV visualization. Membranes were fixed by UV cross-linking using a STRATALINKER™ UV Crosslinker 2400 (Stratagene, Inc, La Jolla, Calif.).
Membranes were probed using QUICKHYB™ hybridization solution (Stratagene, La Jolla, Calif.) using manufacturer's recommendations for stringent conditions with an 822-base pair bcl-x specific probe prepared by PCR from bases 33–855 of human bcl-xl sequence (Boise et al., 1993, Cell 74:597–608; GenBank accession no. L20121). To normalize for variations in loading and transfer efficiency membranes were stripped and probed for glyceraldehyde-3-phosphate dehydrogenase (GAPDH) RNA (Clontech, Palo Alto, Calif.). Hybridized membranes were visualized and quantitated using a PHOSPHORIMAGER™ and IMAGEQUANT™ Software V3.3 (Molecular Dynamics, Sunnyvale, Calif.). Data was normalized to GAPDH levels in untreated controls.
Oligonucleotides were tested by Northern blot analysis as described in Example 14. Oligonucleotides were tested in A549 cells at a concentration of 400 nM. The results are Table 2:
Oligonucleotides were tested by Northern blot analysis as described in Example 14. Chimeric oligonucleotides were in A549 cells at a concentration of 200 nM. Where present, “N.D.” indicates “not determined”.

The mark [1] stands for this setting: 200 nM chimeric oligonucleotide.

Consider “11219 (antisense dC*dG*dG*dG*dT*dT*dC*dT*dC*dC*dT*dG*dG*dT*dG*dG*dC*dA*dA*dT) [compound 11219]”, for which, under “400 nM oligonucleotide”, the “% CONTROL (bcl-x mRNA levels)” value was 6% and the “% INHIB (bcl-x mRNA levels)” value is on record as 94%.
As for “11220 (antisense dC*dA*dG*dT*dG*dT*dC*dT*dG*dG*dT*dC*dA*dT*dT*dT*dC*dC*dG*dA) [compound 11220]”, for the setting “400 nM oligonucleotide”, the “% CONTROL (bcl-x mRNA levels)” value came out at 12% and the “% INHIB (bcl-x mRNA levels)” value was 88%.
As to “11221 (antisense dA*dG*dC*dC*dC*dA*dG*dC*dA*dG*dA*dA*dC*dC*dA*dC*dG*dC*dC*dG) [compound 11221]”, where the note is “400 nM oligonucleotide”, the “% CONTROL (bcl-x mRNA levels)” value turned out to be 11% and the “% INHIB (bcl-x mRNA levels)” value is on record as 89%.
In the case of “11222 (antisense dG*dT*dT*dG*dA*dA*dG*dC*dG*dT*dT*dC*dC*dT*dG*dG*dC*dC*dC*dT) [compound 11222]”, under “400 nM oligonucleotide”, the “% CONTROL (bcl-x mRNA levels)” value was 35% and the “% INHIB (bcl-x mRNA levels)” value is on record as 65%.
Taken in the same sequence, the figures for “11223 (antisense dC*dA*dG*dT*dG*dC*dC*dC*dC*dG*dC*dC*dG*dA*dA*dG*dG*dA*dG*dA) [compound 11223]” were 9% and 91%.
One may read the IC50 as the concentration that gives 50% inhibition. High values mean a need for much substance, low ones inhibition by little substance. Consider “11224 (antisense dT*dC*dG*dC*dC*dT*dG*dC*dC*dT*dC*dC*dC*dT*dC*dA*dG*dC*dG*dC) [compound 11224]”, for which, under “400 nM oligonucleotide”, the “% CONTROL (bcl-x mRNA levels)” value is 6% and the “% INHIB (bcl-x mRNA levels)” value came out at 94%. Moreover, the IC50 (dose-response, Northern blot) is ~175 nM.
Turning to “11225 (antisense dC*dA*dG*dT*dG*dG*dC*dT*dC*dC*dA*dT*dT*dC*dA*dC*dC*dG*dC*dG) [compound 11225]”, under “400 nM oligonucleotide”, the “% CONTROL (bcl-x mRNA levels)” value amounted to 25% and the “% INHIB (bcl-x mRNA levels)” value amounted to 75%.
Take “11226 (antisense dA*dT*dT*dC*dA*dG*dT*dC*dC*dC*dT*dT*dC*dT*dG*dG*dG*dG*dC*dC) [compound 11226]”: for the setting “400 nM oligonucleotide”, the “% CONTROL (bcl-x mRNA levels)” value worked out at 34% and the “% INHIB (bcl-x mRNA levels)” value was 66%.
Taken in the same sequence, the figures for “11227 (antisense dA*dA*dA*dG*dT*dC*dA*dA*dC*dC*dA*dC*dC*dA*dG*dC*dT*dC*dC*dC) [compound 11227]” were 10% and 90%.
As to “11228 (antisense dC*dC*dG*dG*dT*dT*dG*dC*dT*dC*dT*dG*dA*dG*dA*dC*dA*dT*dT*dT) [compound 11228]”, for the setting “400 nM oligonucleotide”, the “% CONTROL (bcl-x mRNA levels)” value is on record as 31% and the “% INHIB (bcl-x mRNA levels)” value was found to be 69%.
For “11229 (antisense dA*dC*dC*dA*dG*dT*dC*dC*dA*dT*dT*dG*dT*dC*dC*dA*dA*dA*dA*dC) [compound 11229]” the same measures were 60% and 40%.
Turning to “11230 (antisense dG*dA*dA*dG*dG*dG*dA*dG*dA*dG*dA*dA*dA*dG*dA*dG*dA*dT*dT*dC) [compound 11230]”, the “% CONTROL (bcl-x mRNA levels)” value (400 nM oligonucleotide) is given as 135%.
Consider “11993 (antisense dT*dC*dA*dT*dT*dC*dA*dC*dT*dA*dC*dC*dT*dG*dT*dT*dC*dA*dA*dA) [compound 11993]”, for which, under “400 nM oligonucleotide”, the “% CONTROL (bcl-x mRNA levels)” value is 142%.
Take “15998 (antisense eT*eA*eA*eT*eA*dG*dG*dG*dA*dT*dG*dG*dG*dC*dT*e[5mC]*eA*eA*e[5mC]*e[5mC]) [compound 15998]”: under setting [1], the “% CONTROL (bcl-x mRNA levels)” value worked out at 13% and the “% INHIB (bcl-x mRNA levels)” value came to 87%.
Consider “15999 (antisense eT*e[5mC]*e[5mC]*e[5mC]*eG*dG*dT*dT*dG*dC*dT*dC*dT*dG*dA*eG*eA*e[5mC]*eA*eT) [compound 15999]”, for which, under setting [1], the “% CONTROL (bcl-x mRNA levels)” value was determined as 4% and the “% INHIB (bcl-x mRNA levels)” value is given as 96%.
Taken in the same sequence, the figures for “16000 (antisense eG*eG*eG*e[5mC]*e[5mC]*dT*dC*dA*dG*dT*dC*dC*dT*dG*dT*eT*e[5mC]*eT*e[5mC]*eT) [compound 16000]” were 4% and 96%.
